Measured values published in ChEMBL document CHEMBL1201862, “PubChem BioAssay data set” (2004).
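Where inhibition never reached the appropriate level, the endpoint shown equals the highest concentration tested. Otherwise, values were interpolated linearly from a five-concentration, 48-hour dose response in 96-well plates. Abbreviation: GI50, concentration required for 50% inhibition of growth.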 The source made the active and inactive calls. Cut-off read from the data, not from the text of the source: active = GI50 up to about 1.1 µM and inactive = higher.

Key:
Experiment in all cases: growth of human tumour cells (NCI), 48 h
A498 = tested on: A498
A549 = tested on: A549
BT-549 = tested on: BT-549
CCRF-CEM = tested on: CCRF-CEM
COLO 205 = tested on: COLO 205
DMS-114 = tested on: DMS-114
HCC 2998 = tested on: HCC 2998
HOP-92 = tested on: HOP-92
HT-29 = tested on: HT-29
KM12 = tested on: KM12
MCF7 = tested on: MCF7
NCI-H522 = tested on: NCI-H522
OVCAR-3 = tested on: OVCAR-3
RXF 393 = tested on: RXF 393
SK-MEL-28 = tested on: SK-MEL-28
SR = tested on: SR
T47D = tested on: T47D
TK-10 = tested on: TK-10
UACC-257 = tested on: UACC-257
UACC-62 = tested on: UACC-62

Row | SMILES | GI50 (A498) | GI50 (A549) | GI50 (BT-549) | GI50 (CCRF-CEM) | GI50 (COLO 205) | GI50 (DMS-114) | GI50 (HCC 2998) | GI50 (HOP-92) | GI50 (HT-29) | GI50 (KM12) | GI50 (MCF7) | GI50 (NCI-H522) | GI50 (OVCAR-3) | GI50 (RXF 393) | GI50 (SK-MEL-28) | GI50 (SR) | GI50 (T47D) | GI50 (TK-10) | GI50 (UACC-257) | GI50 (UACC-62)
1 | Oc1ccc(Cn2c(-c3ccc(O)cc3)nc3ccccc32)cc1 | > 100 µM (inactive) | > 100 µM (inactive) | > 100 µM (inactive) | > 100 µM (inactive) | > 100 µM (inactive) | > 100 µM (inactive) | > 100 µM (inactive) | > 100 µM (inactive) | > 100 µM (inactive) | > 100 µM (inactive) | > 100 µM (inactive) | > 100 µM (inactive) | > 100 µM (inactive) | > 100 µM (inactive) | > 100 µM (inactive) | > 31.6 µM (inactive) | > 100 µM (inactive) | > 100 µM (inactive) | > 100 µM (inactive) | > 100 µM (inactive)
2 | O=C1C=CC2OC(c3ccccc3)C(O)C2O1 (stereo not given) | 2.27 µM (inactive) | 5.74 µM (inactive) | – | 1.15 µM (inactive) | 2.58 µM (inactive) | 4.57 µM (inactive) | 2.47 µM (inactive) | 2.15 µM (inactive) | 4.53 µM (inactive) | 6.76 µM (inactive) | 6.07 µM (inactive) | 1.35 µM (inactive) | 3.5 µM (inactive) | 1.37 µM (inactive) | 4.49 µM (inactive) | – | – | – | 6.31 µM (inactive) | 4.94 µM (inactive)
3 | COC(=O)[C@@H](O)[C@](O)(CCC(C)C)C(=O)O[C@@H]1C(OC)=C[C@]23CCCN2CCc2cc4c(cc2[C@H]13)OCO4 | 1.48 µM (inactive) | 0.951 µM (active) | – | 1.51 µM (inactive) | 1.29 µM (inactive) | 0.265 µM (active) | 0.233 µM (active) | 1.05 µM (active) | 0.891 µM (active) | 1.26 µM (inactive) | 0.351 µM (active) | 0.598 µM (active) | 1.24 µM (inactive) | 0.689 µM (active) | 0.518 µM (active) | – | – | – | 1.82 µM (inactive) | 3.9 µM (inactive)
4 | Cc1n(CC(C)C)c2c([n+]1C)C(=O)c1ccccc1C2=O | 0.32 µM (active) | 0.114 µM (active) | 0.227 µM (active) | 0.122 µM (active) | < 0.0152 µM (active) | < 0.0161 µM (active) | 0.108 µM (active) | 0.641 µM (active) | 0.0241 µM (active) | 0.205 µM (active) | – | 0.0176 µM (active) | < 0.01 µM (active) | 0.811 µM (active) | 1.06 µM (active) | 0.301 µM (active) | 0.0371 µM (active) | 0.411 µM (active) | 0.0513 µM (active) | 0.198 µM (active)
5 | O=C(Nc1ccc([N+](=O)[O-])cc1)C1C(=O)C(=O)N(c2ccc([N+](=O)[O-])cc2)C1=O (stereo not given) | > 100 µM (inactive) | > 100 µM (inactive) | – | > 100 µM (inactive) | 35.8 µM (inactive) | 17.1 µM (inactive) | > 100 µM (inactive) | > 100 µM (inactive) | > 100 µM (inactive) | > 100 µM (inactive) | – | 55.8 µM (inactive) | > 100 µM (inactive) | > 100 µM (inactive) | > 100 µM (inactive) | 59 µM (inactive) | – | > 100 µM (inactive) | > 100 µM (inactive) | 2.72 µM (inactive)
6 | CCOC(=O)c1cc2c(nc1N)-c1ncccc1CC2 | 76.7 µM (inactive) | 38.5 µM (inactive) | – | 20.4 µM (inactive) | 31.5 µM (inactive) | 8.95 µM (inactive) | > 100 µM (inactive) | > 100 µM (inactive) | 16.4 µM (inactive) | 49.9 µM (inactive) | – | 33.4 µM (inactive) | 18.5 µM (inactive) | > 100 µM (inactive) | 36.6 µM (inactive) | 18.7 µM (inactive) | – | > 100 µM (inactive) | 38.5 µM (inactive) | 58.1 µM (inactive)
7 | O=C(c1ccc(F)cc1)c1cccc(C(=O)c2ccc(F)cc2)n1 | > 52.7 µM (inactive) | 69.2 µM (inactive) | 12.2 µM (inactive) | > 100 µM (inactive) | > 100 µM (inactive) | 23.9 µM (inactive) | > 100 µM (inactive) | 15.8 µM (inactive) | > 100 µM (inactive) | > 100 µM (inactive) | > 100 µM (inactive) | 20.3 µM (inactive) | > 100 µM (inactive) | 5.56 µM (inactive) | > 100 µM (inactive) | > 100 µM (inactive) | 34.4 µM (inactive) | 39.7 µM (inactive) | 47.4 µM (inactive) | 44.2 µM (inactive)
8 | O=C(c1cc2ccccc2o1)N(Cc1ccccc1)c1ccccc1 | 34.4 µM (inactive) | 32.6 µM (inactive) | – | 13.6 µM (inactive) | 20.4 µM (inactive) | 19.3 µM (inactive) | 23.4 µM (inactive) | 20.7 µM (inactive) | 22.8 µM (inactive) | 20.6 µM (inactive) | – | 16.4 µM (inactive) | 20.3 µM (inactive) | 26 µM (inactive) | 36.9 µM (inactive) | 26.9 µM (inactive) | – | 33.6 µM (inactive) | 20.3 µM (inactive) | 14.4 µM (inactive)
9 | NC(=O)N/N=C(\Cc1nc2ccc(C(=O)c3ccccc3)cc2nc1O)C(=O)Nc1ccc(Br)cc1 | > 100 µM (inactive) | > 100 µM (inactive) | – | > 100 µM (inactive) | – | > 100 µM (inactive) | > 100 µM (inactive) | > 100 µM (inactive) | > 100 µM (inactive) | > 100 µM (inactive) | – | > 100 µM (inactive) | > 100 µM (inactive) | > 100 µM (inactive) | > 100 µM (inactive) | > 100 µM (inactive) | – | > 100 µM (inactive) | > 100 µM (inactive) | > 100 µM (inactive)
10 | O=C1C(Br)=CC2(C=C1Br)CCNC1=C2C2=NCCc3c[nH]c(c32)C1=O | 1.23 µM (inactive) | 0.951 µM (active) | 0.212 µM (active) | 0.0198 µM (active) | 0.0149 µM (active) | 0.0401 µM (active) | 0.506 µM (active) | 0.0817 µM (active) | 0.0275 µM (active) | 0.516 µM (active) | 0.0266 µM (active) | 0.0176 µM (active) | 0.0249 µM (active) | 0.0681 µM (active) | 0.163 µM (active) | 0.0431 µM (active) | 0.0828 µM (active) | 0.204 µM (active) | 0.101 µM (active) | 0.0933 µM (active)
11 | COc1cccc(NC(=S)Nn2c(C)nc3ccccc3c2=O)c1 | > 100 µM (inactive) | > 100 µM (inactive) | – | > 100 µM (inactive) | > 100 µM (inactive) | > 100 µM (inactive) | – | > 100 µM (inactive) | > 100 µM (inactive) | > 100 µM (inactive) | – | > 100 µM (inactive) | – | > 100 µM (inactive) | > 100 µM (inactive) | > 100 µM (inactive) | – | > 100 µM (inactive) | > 100 µM (inactive) | 71.6 µM (inactive)
12 | Cc1c(-c2coc(-c3ccccc3)n2)c(=O)n(-c2ccccc2)n1C | > 100 µM (inactive) | > 100 µM (inactive) | – | > 100 µM (inactive) | 78.3 µM (inactive) | 36.6 µM (inactive) | 0.1 µM (active) | > 100 µM (inactive) | 57.7 µM (inactive) | > 100 µM (inactive) | – | 29.1 µM (inactive) | > 100 µM (inactive) | – | > 100 µM (inactive) | 45.5 µM (inactive) | – | > 100 µM (inactive) | 49.7 µM (inactive) | –
13 | O=C(O)c1c[nH]cc1C(=O)O | > 100 µM (inactive) | > 100 µM (inactive) | – | > 100 µM (inactive) | > 100 µM (inactive) | > 100 µM (inactive) | – | > 100 µM (inactive) | > 100 µM (inactive) | > 100 µM (inactive) | – | > 100 µM (inactive) | > 100 µM (inactive) | > 100 µM (inactive) | – | > 100 µM (inactive) | – | > 100 µM (inactive) | > 100 µM (inactive) | > 100 µM (inactive)
14 | CN1CCCNCCN(CCc2ccccn2)CCCN(C)CC1 | > 100 µM (inactive) | > 100 µM (inactive) | – | > 41.9 µM (inactive) | > 43.5 µM (inactive) | > 42.6 µM (inactive) | > 100 µM (inactive) | > 100 µM (inactive) | > 100 µM (inactive) | > 67.6 µM (inactive) | – | > 100 µM (inactive) | > 100 µM (inactive) | – | > 100 µM (inactive) | 29.1 µM (inactive) | – | > 100 µM (inactive) | > 100 µM (inactive) | > 100 µM (inactive)
15 | COC(=O)C[C@](O)(CCCC(C)(C)O)C(=O)O[C@@H]1C(OC)=C[C@]23CCCN2CCc2cc4c(cc2[C@H]13)OCO4 [OMACETAXINE MEPESUCCINATE] | 0.0395 µM (active) | – | 3.6 µM (inactive) | 0.0215 µM (active) | 0.218 µM (active) | 0.0047 µM (active) | 0.0583 µM (active) | 0.0869 µM (active) | 0.115 µM (active) | 0.142 µM (active) | 0.015 µM (active) | – | – | 0.107 µM (active) | 0.111 µM (active) | 0.0327 µM (active) | 0.383 µM (active) | 3.74 µM (inactive) | – | 0.113 µM (active)
16 | OC[C@H]1O[C@@H](n2cnc3c(S)ncnc32)[C@H](O)[C@@H]1O [THIOINOSINE] | > 2200 µM (inactive) | > 2500 µM (inactive) | > 2500 µM (inactive) | 1120 µM (inactive) | > 2230 µM (inactive) | 1830 µM (inactive) | > 2500 µM (inactive) | 1050 µM (inactive) | 2260 µM (inactive) | > 2500 µM (inactive) | 2290 µM (inactive) | 2160 µM (inactive) | 1160 µM (inactive) | 2460 µM (inactive) | > 2500 µM (inactive) | 1890 µM (inactive) | 1830 µM (inactive) | > 2500 µM (inactive) | > 2500 µM (inactive) | 1250 µM (inactive)
